In patent US20130085283A1, “GERANYLGERANYLACETONE DERIVATIVES” (Coyote Pharmaceuticals, Inc., priority 2011, published 2013):

Legend:
HSP27 = experiment: Expression of heat shock proteins in vivo, rat brain mRNA by qPCR; settings: time 0 = 100%
Method: (§1) GGA trans isomer in 5% Gum Arabic as an aqueous suspension formulation were orally dosed to Sprague-Dawley rats at 12 mg/Kg body weight. Rat brain tissues were extracted in various time points after the oral dosing. mRNA were prepared from those brain tissues extracted, and cDNA were produced. qPCR analysis was done by using primers specifically designed to detect mRNA of HSPs. GAPDH gene was used as a control to compare quantities of HSP cDNAs amplified by qPCR analysis. Amounts of cDNA quantified at time 0 are normalized as 100%, and relative amounts of cDNA compared with those at various time points are depicted in the tables below: […]

HSP60 = experiment: as above; settings: time 0 = 100%
Method: as §1

HSP70 [1] = experiment: as above; settings: time 0 = 100%
Method: as §1

HSP90 = experiment: as above; settings: time 0 = 100%
Method: as §1

GAPDH = experiment: Expression of heat shock proteins in vivo, rat brain mRNA by qPCR (control gene); settings: time 0 = 100%
Method: as §1

HSP70 [2] = experiment: HSP70 protein in rat brain lysates by Western blotting after oral dosing; format: in vivo
Method: The compounds tabulated below or vehicle controls were orally dosed at 12 mg/kg to Sprague-Dawley rats. Rat brain tissues were extracted in various time points after the oral dosing. Lysates were prepared from the harvested brain tissues. Western blotting analysis was done for the same protein amounts of these lysates, and western signals of HSP70 were detected by chemiluminescence and quantified in parallel with comparisons of those detected at time 0 hr. Western signals at time 0 hr were normalized as 100.

[3] = 12 hr after oral 12 mg/Kg in 5% Gum Arabic
[4] = 24 hr after oral 12 mg/Kg in 5% Gum Arabic
[5] = 48 hr after oral 12 mg/Kg in 5% Gum Arabic
[6] = 96 hr after oral 12 mg/Kg in 5% Gum Arabic

What does the source list for `CC(=O)CC/C=C(\C)CC/C=C(\C)CC/C=C(\C)CCC=C(C)C` (single isomer, unassigned) [GGA trans isomer, 5E,9E,13E-Geranylgeranyl acetone]?
HSP27 relative amount of cDNA (HSP27; [3]): 115.38%; HSP27 relative amount of cDNA (HSP27; [4]): 114.61%; HSP27 relative amount of cDNA (HSP27; [5]): 116.15%; HSP27 relative amount of cDNA (HSP27; [6]): 103.84%; HSP60 relative amount of cDNA (HSP60; [3]): 113.84%; HSP60 relative amount of cDNA (HSP60; [4]): 130.00%; HSP60 relative amount of cDNA (HSP60; [5]): 116.92%; HSP60 relative amount of cDNA (HSP60; [6]): 103.85%; HSP70 relative amount of cDNA (HSP70 [1]; [3]): 118.46%; HSP70 relative amount of cDNA (HSP70 [1]; [4]): 107.69%; HSP70 relative amount of cDNA (HSP70 [1]; [5]): 106.15%; HSP70 relative amount of cDNA (HSP70 [1]; [6]): 103.85%; HSP90 relative amount of cDNA (HSP90; [3]): 107.69%; HSP90 relative amount of cDNA (HSP90; [4]): 106.92%; HSP90 relative amount of cDNA (HSP90; [5]): 105.38%; HSP90 relative amount of cDNA (HSP90; [6]): 100.77%; GAPDH relative amount of cDNA (control gene) (GAPDH; [3]): 96.93%; GAPDH relative amount of cDNA (control gene) (GAPDH; [4]): 99.24%; GAPDH relative amount of cDNA (control gene) (GAPDH; [5]): 100%; GAPDH relative amount of cDNA (control gene) (GAPDH; [6]): 102.31%; Western signal of HSP70 in brain (HSP70 [2]; 12 hr after oral 12 mg/kg, time 0 hr = 100, Vehicle 102%): 115%; Western signal of HSP70 in brain (HSP70 [2]; 48 hr after oral 12 mg/kg, time 0 hr = 100, Vehicle 105%): 115%; Western signal of HSP70 in brain (HSP70 [2]; 96 hr after oral 12 mg/kg, time 0 hr = 100, Vehicle 99%): 114%
